The structures appear in SMILES notation.

Usually IC50 stands for the concentration needed to halve the response being measured.

The nature of the assay: Inhibition of rabbit hind leg tissue microsomes ATPase activity of SERCA assessed as ATP hydrolysis. Details: species or system Oryctolagus cuniculus.
As for `CC(=O)C1=C(O)[C@@H]2[C@H]3c4c[nH]c5cccc(c45)C[C@H]3C(C)(C)N2C1=O` [CYCLOPIAZONIC ACID], the IC50 came to 0.12 µM. Next, `CCC(C)(c1ccc(O)c(C)c1)c1ccc(O)c(C)c1`: 39.3 µM; `Oc1cc(Cc2ccccc2)c(Cc2ccccc2)cc1O`: 23.8 µM; `CC(C)(C)c1cc2c(cc1O)CCC2`: 28.1 µM. Next, `Oc1cc(Cc2ccccc2)c(O)cc1Cc1ccccc1`: 9.4 µM.

Consider `CC(C)(C)c1ccc(O)c(C(c2cc(C(C)(C)C)ccc2O)c2cc(C(C)(C)C)ccc2O)c1`, for which the IC50 worked out at 21.3 µM. For the molecule `Oc1ccc2ccccc2c1Cc1cccc2ccccc12`, the IC50 came to 27.3 µM. Then `CC(C)(C)c1cc(O)c(C(C)(C)C)cc1O`, with 0.4 µM; and `Cc1cc(C(C)(C)c2cc(C)c(O)c(C)c2)cc(C)c1O`, with 19.5 µM.

For `CC(c1ccccc1)c1cc(C(C)(C)C)cc(C(C)(C)C)c1O` (centres undefined), the IC50 is 33.8 µM. Regarding `CC(C)(C)c1ccc(O)c(Cc2cc(C(C)(C)C)ccc2O)c1`, the IC50 came out at 11.8 µM. Next, `Oc1ccc2ccccc2c1Cc1c(O)ccc2ccccc12`: 15 µM; `COc1ccc(C(C)c2cc(C(C)(C)C)cc(C(C)(C)C)c2O)cc1` (centres undefined): 35.3 µM. `CC(C)CCCCCCc1ccc(O)cc1`: the IC50 was found to be 17.2 µM.

As for `Oc1ccc(O)c(C2CCCCCCC2)c1`, the IC50 was determined as 11.5 µM. Then `CC(C)Cc1ccc(CC(C)C)c(O)c1`, with 18.8 µM; and `COc1ccc(C(C)c2cc(C(C)(C)C)c(O)c(C(C)(C)C)c2)cc1` (centres undefined), with 45.4 µM; and `CC(c1ccccc1)(c1ccccc1)c1ccc(O)cc1`, with 49.7 µM. Next, `CC(c1ccc(O)cc1)C(C)c1ccc(O)cc1` (centres undefined): 28.3 µM.

These data come from ChEMBL document CHEMBL1143319, “Structure-based virtual screening for novel inhibitors of the sarco/endoplasmic reticulum calcium ATPase and their experimental evaluation” (Bioorg Med Chem, 2009).
